Data: patent US20200010482A1, “INHIBITORS OF BETA SECRETASE” (Janssen Pharmaceutica NV, priority 2017, published 2020)

Key:
[1] = system: Abeta 1-42 produced and secreted by SKNBE2 cells expressing hAPP695; assay: Cellular αLisa assay in SKNBE2 cells, Abeta 1-42; assay type: cell-based, human; settings: SKNBE2 cells expressing hAPP695, 18 hours incubation; for IC50: Homo sapiens, SKNBE2, 18 h, read-out: CELLULAR αLISA ASSAY IN SKNBE2 CELLS ABETA 42 PIC50 (converted)
Method: (§1) In two αLisa assays the levels of Abeta total and Abeta 1-42 produced and secreted into the medium of human neuroblastoma SKNBE2 cells are quantified. The assay is based on the human neuroblastoma SKNBE2 expressing the wild type Amyloid Precursor Protein (hAPP695). The compounds are diluted and added to these cells, incubated for 18 hours and then measurements of Abeta 1-42 and Abeta total are taken. Abeta total and Abeta 1-42 are measured by sandwich αLisa. αLisa is a sandwich assay using biotinylated antibody AbN/25 attached to streptavidin coated beads and antibody Ab4G8 or cAb42/26 conjugated acceptor beads for the detection of Abeta total and Abeta 1-42 respectively. In the presence of Abeta total or Abeta 1-42, the beads come into close proximity. The excitation of the donor beads provokes the release of singlet oxygen molecules that trigger a cascade of energy transfer in the acceptor beads, resulting in light emission. Light emission is measured after 1 hour incubation (excitation at […] and emission at 615 nm).
(§2) A best-fit curve is fitted by a minimum sum of squares method to the plot of % Controlmin versus compound concentration. From this an IC50 value (inhibitory concentration causing 50% inhibition of activity) can be obtained. • LC=Median of the low control values=Low control: cells preincubated without compound, without biotinylated Ab in the αLisa • HC=Median of the High control values=High Control: cells preincubated without compound
(§3) % Effect=100−[(sample−LC)/(HC−LC)*100]
(§4) % Control=(sample/HC)*100
(§5) % Controlmin=(sample−LC)/(HC−LC)*100

[2] = system: Abeta total produced and secreted by SKNBE2 cells expressing hAPP695; assay: Cellular αLisa assay in SKNBE2 cells, Abeta total; assay type: cell-based, human; settings: SKNBE2 cells expressing hAPP695, 18 hours incubation; for IC50: Homo sapiens, SKNBE2, 18 h, read-out: CELLULAR αLISA ASSAY IN SKNBE2 CELLS ABETA TOTAL pIC50 (converted)
Method: as §1, §2, §3, §4, §5

[3] = biological target: T1, BACE1 (Homo sapiens, UniProt P56817); assay: BACE1 biochemical FRET based assay; settings: recombinant BACE1 0.04 μg/ml, 20 μM substrate, 450 min, pH 5.0; for IC50: read-out: BIOCHEMICAL FRET BASED ASSAY pIC50 (converted)
T1 construct: recombinant BACE1 protein in a final concentration of 0.04 μg/ml
T1 sequence (P56817 46-501): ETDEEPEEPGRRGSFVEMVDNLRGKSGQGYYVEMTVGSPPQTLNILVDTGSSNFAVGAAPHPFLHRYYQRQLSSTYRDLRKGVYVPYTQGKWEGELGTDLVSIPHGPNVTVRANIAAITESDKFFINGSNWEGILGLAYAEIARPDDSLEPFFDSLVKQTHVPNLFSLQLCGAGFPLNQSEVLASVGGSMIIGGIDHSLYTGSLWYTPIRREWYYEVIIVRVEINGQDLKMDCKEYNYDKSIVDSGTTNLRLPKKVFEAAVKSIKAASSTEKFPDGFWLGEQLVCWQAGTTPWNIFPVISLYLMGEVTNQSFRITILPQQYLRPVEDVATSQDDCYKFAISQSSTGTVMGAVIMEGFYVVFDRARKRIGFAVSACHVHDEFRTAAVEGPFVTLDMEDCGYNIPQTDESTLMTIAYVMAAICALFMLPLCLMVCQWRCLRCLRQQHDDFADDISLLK
Description: (§6) This assay is a Fluorescence Resonance Energy Transfer Assay (FRET) based assay. The substrate for this assay is an APP derived 13 amino acids peptide that contains the ‘Swedish’ Lys-Met/Asn-Leu mutation of the amyloid precursor protein (APP) beta-secretase cleavage site. This substrate also contains two fluorophores: (7-methoxycoumarin-4-yl) acetic acid (Mca) is a fluorescent donor with excitation wavelength at 320 nm and emission at 405 nm and 2,4-Dinitrophenyl (Dnp) is a proprietary quencher acceptor. […] Upon cleavage by BACE1, the fluorophore Mca is separated from the quenching group Dnp, restoring the full fluorescence yield of the donor. The increase in fluorescence is linearly related to the rate of proteolysis.
Briefly in a 384-well format recombinant BACE1 protein in a final concentration of 0.04 μg/ml is incubated for 450 minutes at room temperature with 20 μM substrate in incubation buffer (50 mM Citrate buffer pH 5.0, 0.05% PEG) in the presence of compound or DMSO. Next the amount of proteolysis is directly measured by fluorescence measurement (excitation at 320 nm and emission at 405 nm) at different incubation times (0, 30, 60, 90, 120 and 450 min). For every experiment a time curve (every 30 min between 0 min and 120 min) is used to determine the time where we find the lowest basal signal of the high control. The signal at this time (Tx) is used to subtract from the signal at 450 min. Results are expressed in RFU, as difference between T450 and Tx.
(§7) A best-fit curve is fitted by a minimum sum of squares method to the plot of % Controlmin versus compound concentration. From this an IC50 value (inhibitory concentration causing 50% inhibition of activity) can be obtained. • LC=Median of the low control values=Low control: Reaction without enzyme • HC=Median of the High control values=High Control: Reaction with enzyme
as §3, §4, §5

[4] = biological target: T2, BACE2 (Homo sapiens, UniProt Q9Y5Z0); assay: BACE2 biochemical FRET based assay; settings: recombinant BACE2 0.4 μg/ml, 10 μM substrate, 450 min, pH 5.0; for IC50: read-out: BIOCHEMICAL FRET BASED ASSAY pIC50 (converted)
T2 construct: recombinant BACE2 protein in a final concentration of 0.4 μg/ml
T2 sequence (Q9Y5Z0 63-518): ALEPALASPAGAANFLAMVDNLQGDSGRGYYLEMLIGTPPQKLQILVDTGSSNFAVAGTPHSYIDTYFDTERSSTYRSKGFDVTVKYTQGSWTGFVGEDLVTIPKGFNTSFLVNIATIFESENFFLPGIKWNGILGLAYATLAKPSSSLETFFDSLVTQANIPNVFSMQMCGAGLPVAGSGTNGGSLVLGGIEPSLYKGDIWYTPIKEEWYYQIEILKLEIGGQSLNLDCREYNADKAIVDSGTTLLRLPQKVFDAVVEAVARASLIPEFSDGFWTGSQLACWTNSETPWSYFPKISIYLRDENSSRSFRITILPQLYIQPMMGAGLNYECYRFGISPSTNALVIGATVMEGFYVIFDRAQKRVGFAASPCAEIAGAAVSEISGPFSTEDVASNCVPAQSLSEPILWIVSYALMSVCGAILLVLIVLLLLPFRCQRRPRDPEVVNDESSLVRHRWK
Description: as §6, with “assay” for “assay is an APP derived 13 amino acids peptide that”, “the beta-secretase,” for “BACE1,”
Briefly in a 384-well format recombinant BACE2 protein in a final concentration of 0.4 μg/ml is incubated for 450 minutes at room temperature with 10 μM substrate in incubation buffer (50 mM Citrate buffer pH 5.0, 0.05% PEG, no DMSO) in the absence or presence of compound. Next the amount of proteolysis is directly measured by fluorescence measurement at T=0 and T=450 (excitation at 320 nm and emission at 405 nm). Results are expressed in RFU (Relative Fluorescence Units), as difference between T450 and TO.
as §7, §3, §4, §5

Row | SMILES | IC50 [1] | IC50 [2] | IC50 [3] | IC50 [4] | CELLULAR αLISA ASSAY IN SKNBE2 CELLS ABETA 42 PIC50 [1] | CELLULAR αLISA ASSAY IN SKNBE2 CELLS ABETA TOTAL pIC50 [2] | BIOCHEMICAL FRET BASED ASSAY pIC50 [3] | BIOCHEMICAL FRET BASED ASSAY pIC50 [4]
1 | COc1nccc2c1C[C@]1(c3ccc(F)cc3F)N=C(N)SC[C@@H]1C2 [Compound 35] | 13.8 nM | 12 nM | 34.7 nM | 44.7 nM | – | – | – | –
2 | COc1ncc(Br)c2c1C[C@]1(c3ccccc3F)N=C(N)SC[C@@H]1C2 (racemic) [Compound 16] | 138 nM | 138 nM | 55 nM | 77.6 nM | – | – | – | –
3 | CCOc1ncc(C2CC2)c2c1CC1(c3ccc(F)cc3F)N=C(N)SCC1C2 (racemic) [Compound 21] | 355 nM | 302 nM | 135 nM | 97.7 nM | – | – | – | –
4 | COc1ncc(Oc2ccccn2)c2c1C[C@]1(c3ccc(F)cc3F)N=C(N)SC[C@@H]1C2 [Compound 135] | – | – | – | – | 7.6 | 7.62 | 7.6 | 7.55
5 | CCOc1nccc2c1CC1(c3ccc(F)cc3F)N=C(N)SCC1C2 (single isomer, unassigned) [Compound 195] | – | – | – | – | 7.09 | 7.09 | 6.9 | 6.85
6 | COc1ncc(Br)c2c1C[C@]1(c3cc(Oc4ccccn4)ccc3F)N=C(N)SC[C@@H]1C2 [Compound 137] | – | – | – | – | 7.74 | 7.82 | 7.97 | 7.72
7 | COc1ncc(C2CC2)c2c1C[C@]1(c3ccccc3F)N=C(N)SC[C@@H]1C2 (racemic) [Compound 20] | 23.4 nM | 23.4 nM | 24.5 nM | 14.1 nM | – | – | – | –
8 | COc1ncc(-c2cccnc2)c2c1C[C@]1(c3ccc(F)cc3F)N=C(N)SC[C@@H]1C2 [Compound 87] | 0.646 nM | 0.631 nM | 3.8 nM | 7.08 nM | – | – | – | –
9 | COc1nccc2c1C[C@]1(c3ccccc3)N=C(N)SC[C@@H]1C2 (racemic) [Compound 1] | 69.2 nM | 74.1 nM | 398 nM | 468 nM | – | – | – | –
10 | COc1ncc(C#N)c2c1CC1(c3ccc(F)cc3F)N=C(N)SCC1C2 (racemic) [Compound 23] | 26.3 nM | 29.5 nM | 75.9 nM | 155 nM | – | – | – | –
11 | CCOC(=O)c1cnc(OC)c2c1C[C@H]1CSC(N)=N[C@@]1(c1ccc(F)cc1F)C2 (racemic) [Compound 24] | 6.92 nM | 6.61 nM | 13.8 nM | 12.3 nM | – | – | – | –
12 | COc1ncc(-c2ccccc2Cl)c2c1C[C@]1(c3ccc(F)cc3F)N=C(N)SC[C@@H]1C2 [Compound 52] | – | – | – | – | 7.96 | 7.88 | 8.38 | 7.35
13 | COc1ncc(-c2cccnc2)c2c1C[C@]1(c3ccc(F)cc3F)N=C(N)SC[C@@H]1C2 (racemic) [Compound 25] | 1.7 nM | 1.91 nM | 5.89 nM | 12 nM | – | – | – | –
14 | CCOc1nccc2c1CC1(c3ccc(F)cc3F)N=C(N)SCC1C2 (single isomer, unassigned) [Compound 194] | > 8910 nM | 6920 nM | > 10000 nM | > 10000 nM | – | – | – | –
15 | COc1ncc(Br)c2c1CC1(c3ccc(F)cc3F)N=C(N)SCC1C2 (racemic) [Compound 17] | 132 nM | 145 nM | 30.9 nM | 67.6 nM | – | – | – | –
16 | Cn1ccc2c(c1=O)C[C@]1(c3ccccc3F)N=C(N)SC[C@@H]1C2 (racemic) [Compound 34] | 1410 nM | 1510 nM | 6030 nM | 6030 nM | – | – | – | –
17 | COc1nccc2c1CC1(c3cc(O)ccc3F)N=C(N)SCC1C2 (racemic) [Compound 5] | 26.3 nM | 32.4 nM | 162 nM | 63.1 nM | – | – | – | –
18 | COc1ncc(-c2cnccc2C)c2c1C[C@@]1(c3cc(-c4cncnc4)ccc3F)N=C(N)SC[C@H]1C2 [Compound 193] | – | – | – | – | 6.01 | 5.9 | 5.26 | <5
19 | COc1ncc(-c2cnccc2C)c2c1CC1(c3ccc(Cl)cc3F)N=C(N)SCC1C2 (single isomer, unassigned) [Compound 200] | – | – | 17.8 nM | 437 nM | 8.09 | 8.05 | – | –
20 | COc1ncc(-c2cnccc2C)c2c1C[C@]1(c3cc(-c4cncnc4)ccc3F)N=C(N)SC[C@@H]1C2 (mixture of isomers) [Compound 39] | – | – | – | – | 8.78 | 8.71 | 8.3 | 5.78
21 | COc1ncc(-c2cnccc2C)c2c1CC1(c3ccc(Cl)cc3F)N=C(N)SCC1C2 (single isomer, unassigned) [Compound 201] | – | – | 6460 nM | > 10000 nM | 5.64 | 5.69 | – | –
22 | NC1=N[C@@]2(c3ccccc3F)Cc3c(cc[nH]c3=O)C[C@H]2CS1 (racemic) [Compound 3] | 4070 nM | 4680 nM | 8710 nM | 9550 nM | – | – | – | –
